Results published in patent US8134015B2, “Compound inhibiting in vivo phosphorous transport and medicine containing the same” (Kyowa Hakko Kirin Co., Ltd., priority 2003, dated 2012).
Where a name gives a salt, the structure may show the parent alone.

target: T1, rat NaPi-2b (Rattus norvegicus, UniProt Q9JJ09); test: Sodium-dependent phosphate uptake of Xenopus oocytes which expressed NaPi-2b (32P); format: cell-based; details: Xenopus oocytes expressing rat NaPi-2b, 32P radioactive phosphorus; read-out: IC50 (phosphate uptake inhibitory activity)
T1 construct: expressed in transfected cells; host or cells: Xenopus oocytes injected with cRNA
T1 sequence (Q9JJ09 1-695): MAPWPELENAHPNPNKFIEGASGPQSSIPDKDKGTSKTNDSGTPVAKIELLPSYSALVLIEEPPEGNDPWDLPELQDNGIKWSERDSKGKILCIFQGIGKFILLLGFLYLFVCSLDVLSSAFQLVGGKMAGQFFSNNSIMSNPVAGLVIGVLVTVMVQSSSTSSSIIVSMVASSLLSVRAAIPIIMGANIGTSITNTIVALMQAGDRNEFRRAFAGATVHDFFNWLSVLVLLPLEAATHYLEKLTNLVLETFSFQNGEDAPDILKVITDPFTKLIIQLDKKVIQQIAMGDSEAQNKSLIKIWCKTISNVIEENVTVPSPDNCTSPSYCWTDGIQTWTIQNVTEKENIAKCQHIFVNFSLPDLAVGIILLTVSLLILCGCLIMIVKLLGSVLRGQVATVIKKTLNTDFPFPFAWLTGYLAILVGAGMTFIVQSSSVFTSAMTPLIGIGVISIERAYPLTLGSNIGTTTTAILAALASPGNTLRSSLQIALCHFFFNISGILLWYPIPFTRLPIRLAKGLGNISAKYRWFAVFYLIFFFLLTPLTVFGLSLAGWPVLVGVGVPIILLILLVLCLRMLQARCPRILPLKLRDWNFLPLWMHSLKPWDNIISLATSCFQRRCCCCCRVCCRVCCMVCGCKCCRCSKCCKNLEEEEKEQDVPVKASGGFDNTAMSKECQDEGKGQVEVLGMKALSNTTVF
Procedure, shortened: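 Rat small-intestine NaPi-2b cRNA injected into Xenopus oocytes, expressed for 2 days. Sodium-dependent phosphate uptake measured with 32P; % inhibition at 300 and 100 μM taken from the same inhibition curve.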

IC50 [nM] | SMILES
17900 | COc1ccc(/C=N/NC(=O)c2c(NC(=O)c3cccc(CN4CCC(CO)CC4)c3)sc3c2CCC3)cc1 [Compound 821, 3-(4-Hydroxymethyl-piperidin-1-ylmethyl)-N-[3-(4-methoxy-benzylidene-hydrazinocarbonyl)-5,6-dihydro-4H-cyclopenta[b]thiophen-2-yl]-benzamide]
6930 | Cc1ccc(/C=N/NC(=O)c2c(C)csc2NC(=O)c2cccc(CN(C)C)c2)cc1 [Compound 823, 3-Dimethylaminomethyl-N-[4-methyl-3-(4-methyl-benzylidene-hydrazinocarbonyl)-thiophen-2-yl]-benzamide]
4520 | COc1ccc(/C=N/NC(=O)c2c(C)csc2NC(=O)c2cccc(CN(C)C)c2)cc1 [Compound 825, 3-Dimethylaminomethyl-N-[3-(4-methoxy-benzylidene-hydrazinocarbonyl)-4-methyl-thiophen-2-yl]-benzamide]
4440 | Cc1ccc(/C=N/NC(=O)c2c(C)csc2NC(=O)c2cccc(CN3CCN(c4ncccn4)CC3)c2)cc1C [Compound 826, N-[3-(3,4-Dimethyl-benzylidene-hydrazinocarbonyl)-4-methyl-thiophen-2-yl]-3-(4-pyrimidin-2-yl-piperazin-1-ylmethyl)-benzamide]
12900 | COc1ccc(/C=N/NC(=O)c2c(C)csc2NC(=O)c2cccc(CN3CCC4(CC3)OCCO4)c2)cc1 [Compound 837, 3-(1,4-Dioxa-8-aza-spiro[4,5]dec-8-ylmethyl]-N-[3-(4-methoxy-benzylidene-hydrazinocarbonyl)-4-methyl-thiophen-2-yl]-benzamide]
3220 | CCN(CC)CCN(CCN(CC)CC)Cc1cccc(C(=O)Nc2scc(C)c2C(=O)N/N=C/c2ccc(Cl)c(C(F)(F)F)c2)c1 [Compound 842, 3-{[Bis-(2-diethylamino-ethyl)-amino]-methyl}-N-[3-(4-chloro-3-trifluoromethyl-benzylidene-hydrazinocarbonyl)-4-methyl-thiophen-2-yl]-benzamide]
4190 | CCN(CC)CCN(CCN(CC)CC)Cc1cccc(C(=O)Nc2scc(C)c2C(=O)N/N=C/c2ccc(OC)cc2)c1 [Compound 843, 3-{[Bis-(2-diethylamino-ethyl)-amino]-methyl}-N-[3-(4-methoxy-benzylidene-hydrazinocarbonyl)-4-methyl-thiophen-2-yl]-benzamide]
< 3000 | Cc1ccc(/C=N/NC(=O)c2c(NC(=O)c3cccc(CN(CC(C)O)CC(C)O)c3)sc(C)c2C)cc1C (stereo not shown) [Compound 844, 3-{[Bis-(2-hydroxy-propyl)-amino]-methyl}-N-[3-(3,4-dimethyl-benzylidene-hydrazinocarbonyl)-4,5-dimethyl-thiophen-2-yl]-benzamide]
< 3000 | Cc1sc(NC(=O)c2cccc(CN(CC(C)O)CC(C)O)c2)c(C(=O)N/N=C/c2ccc(Cl)c(C(F)(F)F)c2)c1C (stereo not shown) [Compound 847, 3-{[Bis-(2-hydroxy-propyl)-amino]-methyl}-N-[3-(4-chloro-3-trifluoromethyl-benzylidene-hydrazinocarbonyl)-4,5-dimethyl-thiophen-2-yl]-benzamide]
2200 | COc1ccc(/C=N/NC(=O)c2c(NC(=O)c3cccc(CN(CC(C)O)CC(C)O)c3)sc(C)c2C)cc1 (stereo not shown) [Compound 848, 3-{[Bis-(2-hydroxy-propyl)-amino]-methyl}-N-[3-(4-methoxy-benzylidene-hydrazinocarbonyl)-4,5-dimethyl-thiophen-2-yl]-benzamide]
< 3000 | CCN(CC)CCN(CCN(CC)CC)Cc1cccc(C(=O)Nc2sc3c(c2C(=O)N/N=C/c2ccc(Cl)c(C(F)(F)F)c2)CCCC3)c1 [Compound 849, 3-{[Bis-(2-diethylamino-ethyl)-amino]-methyl}-N-[3-(4-chloro-3-trifluoromethyl-benzylidene-hydrazinocarbonyl)-4,5,6,7-tetrahydro-benzo[b]thiophen-2-yl]-benzamide]
3100 | CCN(CC)CCN(CCN(CC)CC)Cc1cccc(C(=O)Nc2sc3c(c2C(=O)N/N=C/c2ccc(OC)cc2)CCCC3)c1 [Compound 850, 3-{[Bis-(2-diethylamino-ethyl)-amino]-methyl}-N-[3-(4-methoxy-benzylidene-hydrazinocarbonyl)-4,5,6,7-tetrahydro-benzo[b]-thiophen-2-yl]-benzamide]
1360 | Cc1csc(NC(=O)c2cccc(CN(CC(C)O)CC(C)O)c2)c1C(=O)N/N=C/c1ccc(Cl)c(C(F)(F)F)c1 (stereo not shown) [Compound 851, 3-{[Bis-(2-hydroxy-propyl)-amino]-methyl}-N-[3-(4-chloro-3-trifluoromethyl-benzylidene-hydrazinocarbonyl)-4-methyl-thiophen-2-yl]-benzamide; hydrochloride]
< 1000 | COc1ccc(/C=N/NC(=O)c2c(C)csc2NC(=O)c2cccc(CN(CC(C)O)CC(C)O)c2)cc1 (stereo not shown) [Compound 852, 3-{[Bis-(2-hydroxy-propyl)-amino]-methyl}-N-[3-(4-methoxy-benzylidene-hydrazinocarbonyl)-4-methyl-thiophen-2-yl]-benzamide; hydrochloride]
2140 | CC(O)CN(Cc1cccc(C(=O)Nc2ccc(F)cc2C(=O)N/N=C/c2ccc(Cl)c(C(F)(F)F)c2)c1)CC(C)O (stereo not shown) [Compound 853, 3-{[Bis-(2-hydroxy-propyl)-amino]-methyl}-N-[2-(4-chloro-3-trifluoromethyl-benzylidene-hydrazinocarbonyl)-4-fluoro-phenyl]-benzamide; hydrochloride]
1330 | COc1ccc(/C=N/NC(=O)c2cc(F)ccc2NC(=O)c2cccc(CN(CC(C)O)CC(C)O)c2)cc1 (stereo not shown) [Compound 854, 3-{[Bis-(2-hydroxy-propyl)-amino]-methyl}-N-[4-fluoro-2-(4-methoxy-benzylidene-hydrazinocarbonyl)-phenyl]-benzamide; hydrochloride]
1750 | CCN(CC)CCN(CCN(CC)CC)Cc1cccc(C(=O)Nc2sc3c(c2C(=O)N/N=C/c2ccc(Cl)c(C(F)(F)F)c2)CCCC3)c1 [Compound 855, 3-{[Bis-(2-diethylamino-ethyl)-amino]-methyl}-N-[3-(4-chloro-3-trifluoromethyl-benzylidene-hydrazinocarbonyl)-4,5,6,7-tetrahydro-benzo[b]thiophen-2-yl]-benzamide; hydrochloride]
1770 | CCN(CC)CCN(CCN(CC)CC)Cc1cccc(C(=O)Nc2sc3c(c2C(=O)N/N=C/c2ccc(OC)cc2)CCCC3)c1 [Compound 856, 3-{[Bis-(2-diethylamino-ethyl)-amino]-methyl}-N-[3-(4-methoxy-benzylidene-hydrazinocarbonyl)-4,5,6,7-tetrahydro-benzo[b]thiophen-2-yl]-benzamide; hydrochloride]
1180 | CC(O)CN(Cc1cccc(C(=O)Nc2ccc(F)cc2C(=O)N/N=C/c2ccc(Cl)c(C(F)(F)F)c2)c1)CC(C)O (stereo not shown) [Compound 857, 3-{[Bis-(2-hydroxy-propyl)-amino]-methyl}-N-[2-(4-chloro-3-trifluoromethyl-benzylidene-hydrazinocarbonyl)-4-fluoro-phenyl]-benzamide]
1920 | O=C(Nc1ccc(N2CCCCC2)cc1C(=O)N/N=C/c1ccc(F)cc1)c1cccc(CN2CCN(CCO)CC2)c1 [Compound 866, N-[2-(4-Fluoro-benzylidene-hydrazinocarbonyl)-4-piperidin-1-yl-phenyl]-3-[4-(2-hydroxy-ethyl)-piperazin-1-ylmethyl]-benzamide]
2240 | O=C(Nc1ccc(N2CCCCC2)cc1C(=O)N/N=C/c1cccc(F)c1)c1cccc(CN2CCN(CCO)CC2)c1 [Compound 867, N-[2-(3-Fluoro-benzylidene-hydrazinocarbonyl)-4-piperidin-1-yl-phenyl]-3-[4-(2-hydroxy-ethyl)-piperazin-1-ylmethyl]-benzamide]
< 300 | O=C(Nc1ccc(N2CCCCC2)cc1C(=O)N/N=C/c1ccc(Cl)c(C(F)(F)F)c1)c1cccc(CN2CCN(CCO)CC2)c1 [Compound 868, N-[2-(4-Chloro-3-trifluoromethyl-benzylidene-hydrazinocarbonyl)-4-piperidin-1-yl-phenyl]-3-[4-(2-hydroxy-ethyl)-piperazin-1-ylmethyl]-benzamide]
6680 | COc1ccc(/C=N/NC(=O)c2cc(N3CCCCC3)ccc2NC(=O)c2cccc(CN3CCN(CCO)CC3)c2)cc1 [Compound 869, 3-[4-(2-Hydroxy-ethyl)-piperazin-1-ylmethyl]-N-[2-(4-methoxy-benzylidene-hydrazinocarbonyl)-4-piperidin-1-yl-phenyl]-benzamide]
530 | Cc1ccc(/C=N/NC(=O)c2cc(N3CCCCC3)ccc2NC(=O)c2cccc(CN3CCC(O)CC3)c2)cc1C [Compound 870, N-[2-(3,4-Dimethyl-benzylidene-hydrazinocarbonyl)-4-piperidin-1-yl-phenyl]-3-(4-hydroxy-piperidin-1-ylmethyl)-benzamide]
1000 | Cc1ccc(/C=N/NC(=O)c2cc(N3CCCCC3)ccc2NC(=O)c2cccc(CN3CCC(O)CC3)c2)cc1 [Compound 871, 3-(4-Hydroxy-piperidin-1-ylmethyl)-N-[2-(4-methyl-benzylidene-hydrazinocarbonyl)-4-piperidin-1-yl-phenyl]-benzamide]
